Source: patent US10414797B2, “Gelatinase inhibitors and use thereof” (Iproteos S.L, priority 2015, dated 2019)
pIC50: −log10 of the molar value. Where a SMILES comes first, the peptide text is derived from it. [ ]: non-standard residue; d: D form. The star is where a group is joined. ξ: configuration not given here. Pro(trans-4-F) = O=C(O)[C@@H]1C[C@@H](F)CN1; NMeW = CN[C@@H](Cc1c[nH]c2ccccc12)C(=O)O; Benzoyl(3,5-F2) = O=C(c1cc(F)cc(F)c1)*; NMeIle(3ξ) = CCC(C)[C@H](NC)C(=O)O; NMeF = CN[C@@H](Cc1ccccc1)C(=O)O; NMeQ = CN[C@@H](CCC(N)=O)C(=O)O; NMeL = CN[C@@H](CC(C)C)C(=O)O; NMeA = CN[C@@H](C)C(=O)O; Dab = NCC[C@H](N)C(=O)O; Hexanoyl = CCCCCC(=O)*; Butyryl = CCCC(=O)*; Bz = O=C(c1ccccc1)*; NHOH = ON*

Molecular target: MMP-9
Sequence (P14780 107-707 limits assumed): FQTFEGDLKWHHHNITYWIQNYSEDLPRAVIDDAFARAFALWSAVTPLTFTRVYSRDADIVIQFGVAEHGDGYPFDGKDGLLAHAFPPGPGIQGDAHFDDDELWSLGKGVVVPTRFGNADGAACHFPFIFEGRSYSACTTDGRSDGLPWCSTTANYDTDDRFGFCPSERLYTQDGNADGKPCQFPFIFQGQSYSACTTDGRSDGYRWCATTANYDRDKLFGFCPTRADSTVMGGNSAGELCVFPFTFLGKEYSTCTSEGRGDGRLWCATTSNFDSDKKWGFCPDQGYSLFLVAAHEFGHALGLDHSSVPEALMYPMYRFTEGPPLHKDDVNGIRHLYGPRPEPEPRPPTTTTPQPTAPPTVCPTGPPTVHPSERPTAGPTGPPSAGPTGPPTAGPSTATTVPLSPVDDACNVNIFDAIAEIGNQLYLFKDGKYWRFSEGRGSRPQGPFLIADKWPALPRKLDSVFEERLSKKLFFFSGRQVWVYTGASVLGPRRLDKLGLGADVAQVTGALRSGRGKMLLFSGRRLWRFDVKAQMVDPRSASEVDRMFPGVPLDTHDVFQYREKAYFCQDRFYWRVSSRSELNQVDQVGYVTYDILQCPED
Assay: MMP-9 inhibition assay (fluorimetric, DQ gelatin substrate)
Assay type: biochemical
Settings: recombinant MMP-9 (Merck-Millipore for examples 1 to 9 and comparative examples; Enzo for examples 10 to 16), DQ gelatin 50 μg/mL, 4 hours at room temperature, pH 7.6
Protocol: (§1) All the experiments were done in 1× reaction buffer, which was obtained from a 10× reaction buffer solution. The content of the 10× reaction buffer was: 50 mL of 0.5 M Tris-HCl, 1.5 M NaCl, 50 mM CaCl2 and 2 mM sodium azide at pH 7.6. To obtain the 1× reaction buffer 4 mL of the 10× reaction buffer were diluted in 36 mL of H2O.
(§2) Recombinant MMP-9 expressed was obtained from Merck-Millipore (catalog number PF140-5UG, used in examples 1 to 9 and comparative examples) and Enzo (catalog number-SE360-0010, used in examples 10 to 16). DQ gelatin from pig skin fluorescein conjugated (MMP-9 substrate) was obtained from Life Technologies (catalog number E12055).
(§3) Preparation of the MMP-9 for the activity assay: MMP-9 was provided as a stock solution (0.1 mg/mL). The enzyme was diluted in 1× reaction buffer to a final concentration of 5 μg/mL.
(§4) Preparation of the DQ gelatin (substrate) solution for the activity assay: the solid form of the substrate was dissolved in water in order to obtain a stock solution of 1 mg/mL.
(§5) Procedure: The enzymatic assays were performed in 96-well microtiter plate, which allowed simultaneous monitoring of multiple reactions. For each reaction, 84.6 μL of 1× reaction buffer (pH 7.6), […] of MMP-9 (final concentration 85 ng/mL) and 2 μL of the corresponding new compound were added to each well. A stock solution of new compound was prepared in DMSO (100 mM), and dilutions were prepared from this stock solution with DMSO. Finally, to the mixture contained in each well 10 μL of the substrate were added (final concentration 50 μg/mL). The reaction was incubated for 4 hours at room temperature in an orbital shaker (100 rpm).
(§6) The inhibitory activity of the new compound was measured fluorimetrically. The excitation and emission wavelengths were 483 and 525 nm, respectively.
(§7) Inhibitory activity at several concentration points (ranging from 100 pM to 200 μM MMP) were measured for each compound. The inhibitory activity on MMP-2 and MMP-9 was calculated according to eq 1. For each new compound, the fluorescence in the presence (a) and in the absence (b) of the corresponding MMP was measured. The maximum fluorescence (0% inhibitory activity) was obtained from a sample of the corresponding MMP in the absence of inhibitory compounds. To estimate the inhibitory potency of the novel compounds, activities were plotted against the log concentration of the compound, adjusting to a sigmoid curve using GraphPad Prism software, and the IC50 value, defined as the concentration of compound required to inhibit 50% of the corresponding MMP activity, was determined from resulting curve.
(§8) a corresponds to fluorescence intensity in the presence of substrate+test compound+MMP
(§9) b corresponds to the fluorescence intensity in the presence of substrate+tested compound
(§10) c corresponds to the fluorescence intensity in the presence of substrate+MMP
(§11) d corresponds to the fluorescence intensity of the presence of substrate

First: CCCC(=O)N(C)[C@@H](Cc1c[nH]c2ccccc12)C(=O)N(C)[C@@H](CC(C)C)C(=O)N1CCC[C@H]1C(=O)N(C)[C@H](C(=O)N[C@@H](CCNC(=O)c1cc(F)cc(F)c1)C(=O)NO)C(C)CC (stereo partly drawn) [Example 14, (2S)-1-[(2S)-2-[[(2S)-2-[butanoyl(methyl)amino]-3-(1H-indol-3-yl)propanoyl]-methyl-amino]-4-methyl-pentanoyl]-N-[(1S)-1-[[(1S)-3-[(3,5-difluorobenzoyl)amino]-1-(hydroxycarbamoyl)propyl]carbamoyl]-2-methyl-butyl]-N-methyl-pyrrolidine-2-carboxamide] (Butyryl-[NMeW][NMeL]P[NMeIle(3ξ)][Dab](Benzoyl(3,5-F2))-{NHOH})
Second: CCC(C)[C@@H](C(=O)N[C@@H](CCNC(=O)c1cc(F)cc(F)c1)C(=O)NO)N(C)C(=O)[C@@H]1CCCN1C(=O)CCCOc1ccccc1 (stereo partly drawn) [Example 9, (2S)—N-[(1S)-1-[[(1S)-3-[(3,5-difluorobenzoyl)amino]-1-(hydroxycarbamoyl)propyl]carbamoyl]-2-methyl-butyl]-N-methyl-1-(4-phenoxybutanoyl)pyrrolidine-2-carboxamide]
The pIC50 of the first is 1.04 log units higher: 7.34 for the first, 6.30 for the second.

`CCC(C)[C@@H](C(=O)N[C@@H](CCNC(=O)c1cc(F)cc(F)c1)C(=O)NO)N(C)C(=O)[C@@H]1CC(F)(F)CN1C(=O)CCCOc1ccccc1` (stereo partly drawn) [Example 10, (2S)—N-[(1S)-1-[[(1S)-3-[(3,5-difluorobenzoyl)amino]-1-(hydroxycarbamoyl)propyl]carbamoyl]-2-methyl-butyl]-4,4-difluoro-N-methyl-1-(4-phenoxybutanoyl)pyrrolidine-2-carboxamide] and `CCC(C)[C@@H](C(=O)N[C@@H](CCNC(=O)c1cc(F)cc(F)c1)C(=O)NO)N(C)C(=O)[C@@H]1CCCN1C(C)=O` (stereo partly drawn) [Example 2, (2S)-1-acetyl-N-[(1S)-1-[[(1S)-3-[(3,5-difluorobenzoyl)amino]-1-(hydroxycarbamoyl)propyl]carbamoyl]-2-methyl-butyl]-N-methyl-pyrrolidine-2-carboxamide] are within 0.2 log units of each other in pIC50: 6.65 for the first, 6.52 for the second.

Going from `CCC(C)[C@@H](C(=O)N[C@@H](CCNC(=O)c1cc(F)cc(F)c1)C(=O)NO)N(C)C(=O)[C@@H]1CCCN1C(=O)CC(C)C` (stereo partly drawn) [Example 5, (2S)—N-[(1S)-1-[[(1S)-3-[(3,5-difluorobenzoyl)amino]-1-(hydroxycarbamoyl)propyl]carbamoyl]-2-methyl-butyl]-N-methyl-1-(3-methylbutanoyl)pyrrolidine-2-carboxamide] to `CCC(C)[C@@H](C(=O)N[C@@H](CCNC(=O)c1cc(F)cc(F)c1)C(=O)NO)N(C)C(=O)[C@@H]1CCCN1C(=O)CCN(C)C(C)=O` (stereo partly drawn) [Example 13, (2S)-1-[3-[acetyl(methyl)amino]propanoyl]-N-[(1S)-1-[[(1S)-3-[(3,5-difluorobenzoyl)amino]-1-(hydroxycarbamoyl)propyl]carbamoyl]-2-methyl-butyl]-N-methyl-pyrrolidine-2-carboxamide], the pIC50 rises from 6.22 to 6.47 (0.25 log units). The second is the more potent here.

Going from `CC(=O)N1CCC[C@H]1C(=O)N(C)[C@@H](CCC(N)=O)C(=O)N[C@@H](Cc1c[nH]c2ccccc12)C(=O)NO` [Example C20, (2S)-2-[[(2S)-1-acetylpyrrolidine-2-carbonyl]-methyl-amino]-N-[(1S)-2-(hydroxyamino)-1-(1H-indol-3-ylmethyl)-2-oxo-ethyl]pentanediamide, reference compound] (Ac-Pro-[NMeQ]-Trp-{NHOH}) to `CC(=O)N1CCC[C@H]1C(=O)N[C@@H](CCC(N)=O)C(=O)N[C@@H](Cc1c[nH]c2ccccc12)C(=O)NO` [Example C17, (2S)-2-[[(2S)-1-acetylpyrrolidine-2-carbonyl)amino]-N-[(1S)-2-(hydroxyamino)-1-(1H-indol-3-ylmethyl)-2-oxo-ethyl]pentanediamide, reference compound] (Ac-Pro-Gln-Trp-{NHOH}), the pIC50 falls from 4.66 to 2.46 (2.20 log units). The first is the more potent here.

`CCC(C)[C@@H](C(=O)N[C@@H](CCNC(=O)c1ccc(F)cc1)C(=O)NO)N(C)C(=O)[C@@H]1CCCN1C(C)=O` (stereo partly drawn) [Example 1, (2S)-1-acetyl-N-[(1S)-1-[[(1S)-3-[(4-fluorobenzoyl)amino]-1-(hydroxycarbamoyl)propyl]carbamoyl]-2-methyl-butyl]-N-methyl-pyrrolidine-2-carboxamide] gave a pIC50 of 5.90.

Molecular target: MMP-9 (Homo sapiens, UniProt P14780)
Sequence (P14780 107-707 limits assumed): as above
Assay: as above
Assay type: biochemical
Settings: recombinant MMP-9 (Merck-Millipore for examples 1 to 9 and comparative examples; Enzo for examples 10 to 16), DQ gelatin 50 μg/mL, 4 hours at room temperature, pH 7.6
Protocol: as §1, §2, §3, §4, §5, §6, §7, §8, §9, §10, §11

First: CCC(C)[C@@H](C(=O)N[C@@H](CCNC(=O)c1cc(F)cc(F)c1)C(=O)NO)N(C)C(=O)[C@@H]1CCCN1C(=O)[C@H](C)N(C)C(C)=O (stereo partly drawn) [Example 12, (2 S)-1-[(2S)-2-[acetyl(methyl)amino]propanoyl]-N-[(1S)-1-[[(1S)-3-[(3,5-difluorobenzoyl)amino]-1-(hydroxycarbamoyl)propyl]carbamoyl]-2-methyl-butyl]-N-methyl-pyrrolidine-2-carboxamide] (Ac-[NMeA]P[NMeIle(3ξ)][Dab](Benzoyl(3,5-F2))-{NHOH})
Second: CCC(C)[C@@H](C(=O)N[C@@H](CCNC(=O)c1cc(F)cc(F)c1)C(=O)NO)N(C)C(=O)[C@@H]1CCCN1C(=O)[C@H](Cc1ccccc1)N(C)C(C)=O (stereo partly drawn) [Example 11, (2 S)-1-[(2S)-2-[acetyl(methyl)amino]-3-phenyl-propanoyl]-N-[(1S)-1-[[(1S)-3-[(3,5-difluorobenzoyl)amino]-1-(hydroxycarbamoyl)propyl]carbamoyl]-2-methyl-butyl]-N-methyl-pyrrolidine-2-carboxamide] (Ac-[NMeF]P[NMeIle(3ξ)][Dab](Benzoyl(3,5-F2))-{NHOH})
The pIC50 of the first is 0.28 log units lower: 6.87 for the first, 7.15 for the second.

Going from `CCCCCC(=O)N1CC(F)(F)C[C@H]1C(=O)N(C)[C@H](C(=O)N[C@@H](CCNC(=O)c1cc(F)cc(F)c1)C(=O)NO)C(C)CC` (stereo partly drawn) [Example 7, (2S)—N-[(1S)-1-[[(1S)-3-[(3,5-difluorobenzoyl)amino]-1-(hydroxycarbamoyl)propyl]carbamoyl]-2-methyl-butyl]-4,4-difluoro-1-hexanoyl-N-methyl-pyrrolidine-2-carboxamide] to `CCCCCC(=O)N1CCC[C@H]1C(=O)N(C)[C@H](C(=O)N[C@@H](CCNC(=O)c1cc(F)cc(F)c1)C(=O)NO)C(C)CC` (stereo partly drawn) [Example 3, (2S)—N-[(1S)-1-[[(1S)-3-[(3,5-difluorobenzoyl)amino]-1-(hydroxycarbamoyl)propyl]carbamoyl]-2-methyl-butyl]-1-hexanoyl-N-methyl-pyrrolidine-2-carboxamide], the pIC50 rises from 6.15 to 6.40 (0.25 log units).

Compared with `CCCCCC(=O)N1C[C@H](F)C[C@H]1C(=O)N(C)[C@H](C(=O)N[C@@H](CCNC(=O)c1ccccc1)C(=O)NO)C(C)CC` (stereo partly drawn) [Example 16, (2S,4R)—N-[(1S)-1-[[(1S)-3-benzamido-1-(hydroxycarbamoyl)propyl]carbamoyl]-2-methyl-butyl]-4-fluoro-N-methyl-1-hexanoyl-pyrrolidine-2-carboxamide] (Hexanoyl-[Pro(trans-4-F)]-[NMeIle(3ξ)]-[Dab](Bz)-{NHOH}), `CCCCCC(=O)N1CCC[C@H]1C(=O)N(C)[C@H](C(=O)N[C@@H](CCNC(=O)c1ccccc1)C(=O)NO)C(C)CC` (stereo partly drawn) [Example 15, (2S)—N-[(1S)-1-[[(1S)-3-benzamido-1-(hydroxycarbamoyl)propyl]carbamoyl]-2-methyl-butyl]-N-methyl-1-hexanoyl-pyrrolidine-2-carboxamide] (Hexanoyl-Pro-[NMeIle(3ξ)]-[Dab](Bz)-{NHOH}) is 1.85 log units lower in pIC50: 8.00 for the first, 6.15 for the second. The first is the more potent here.

`CCCC(=O)N1CCC[C@H]1C(=O)N(C)[C@H](C(=O)N[C@@H](CCNC(=O)c1cc(F)cc(F)c1)C(=O)NO)C(C)CC` (stereo partly drawn) [Example 4, (2S)-1-butanoyl-N-[(1S)-1-[[(1S)-3-[(3,5-difluorobenzoyl)amino]-1-(hydroxycarbamoyl)propyl]carbamoyl]-2-methyl-butyl]-N-methyl-pyrrolidine-2-carboxamide] and `CCCC(CCC)C(=O)N1CCC[C@H]1C(=O)N(C)[C@H](C(=O)N[C@@H](CCNC(=O)c1cc(F)cc(F)c1)C(=O)NO)C(C)CC` (stereo partly drawn) [Example 8, (2S)—N-[(1S)-1-[[(1S)-3-[(3,5-difluorobenzoyl)amino]-1-(hydroxycarbamoyl)propyl]carbamoyl]-2-methyl-butyl]-N-methyl-1-(2-propylpentanoyl)pyrrolidine-2-carboxamide] are within 0.2 log units of each other in pIC50: 6.63 for the first, 6.58 for the second.
